From US12472185B2, “Methods for killing antibiotic tolerant bacteria” (THE PENN STATE RESEARCH FOUNDATION, priority 2020, dated 2025)
In brackets after ≈: the same amount, converted by molar mass. Several values for one entry are separate records, joined by “and”; a condition that tells them apart may be missing. Identical values can stand only once.

Tests used:
[1] = system: E. coli BW25113 persister cells; assay: Survival of persister cells (rifampicin/ampicillin generated); assay type: cell-based, Escherichia coli; details: 100 μM, 6 hr
Procedure: FIG. 3. NPIMA kills Escherichia coli, Pseudomonas aeruginosa, persister cells. Survival of (a) E. coli BW25113 and (b) P. aeruginosa PA14 after treatment with NPIMA (100 μM), 5-iodoindole (5-II, 100 μM), and DMSO for 6 hr. Asterisk indicates no viable cells detected. DMSO, dimethyl sulfoxide; NPIMA, 5-nitro-3-phenyl-1H-indol-2-yl-methylamine hydrochloride.
E. coli persister cells were prepared following our previous method (Kim, Yamasaki, et al., 2018; Kwan, Valenta, Benedik, & Wood, 2013). Exponentially-growing cells (turbidity of 0.8 at 600 nm) were treated with rifampicin (100 μg/ml for 30 min) to stop transcription, washed, and any remaining nonpersister cells were lysed by ampicillin in LB (100 μg/ml for 3 hr). Cells were harvested by centrifugation (17,000 g for 1 min) and washed with 1× phosphate-buffered saline buffer (PBS, 8 g NaCl, 0.2 g KCl, 1.15 g Na2HPO4, and 0.2 g KH2PO4 per 1,000 ml) twice to remove all possible carbon sources, then resuspended with 1×PBS. Natural E. coli persister cells were generated by treating stationary-phase cells (turbidity of 6 at 600 nm) with ampicillin (100 μg/ml) for 3 hr. P. aeruginosa PA14 persister cells were prepared by incubating to the stationary phase, diluting sixfold, and treating with carbonyl cyanide m-chlorophenylhydrazone (CCCP, 50 mg/ml stock solution in dimethly sulfoxide [DMSO]) to stop adenosine triphosphate (ATP) production (200 μg/ml for 3 hr), washed twice with 0.85% NaCl (5,000 g for 10 min), and any nonpersister cells were killed by ciprofloxacin (5 μg/ml) in LB for 3 hr. Following the antibiotic treatment, bacteria were washed twice with 0.85% NaCl (5,000 g for 10 min).
For bacterial viability, cells were washed twice with 0.85% NaCl, resuspended in 1×PBS, and cell counts were determined via the drop assay (Donegan, Matyac, Seidler, & Porteous, 1991). […] Cell viability was determined via a cell counting kit (CCK-8 Kit, ab228554; Abcam), and cytotoxicity was determined via the lactate dehydrogenase (LDH) assay (LDH Assay Kit, MK401; Takara).

[2] = system: P. aeruginosa PA14 exponential cells; assay: Survival of exponentially-growing cells (drop assay); assay type: cell-based, Pseudomonas aeruginosa; details: 100 μM
Procedure: (§1) FIG. 2. NPIMA eradicates Escherichia coli, Pseudomonas aeruginosa, and Staphylococcus aureus exponential cells. Survival after 6 hr for (a) E. coli BW25113 with NPIMA and 5-iodoindole at 100 μM, (b) P. aeruginosa PA14 with NPIMA and 5-iodoindole at 100 μM, and (c) S. aureus with NPIMA and 5-iodoindole at 200 μM. Asterisk indicates no viable cells detected. NPIMA, 5-nitro-3-phenyl-1H-indol-2-yl-methylamine hydrochloride.
(§2) For bacterial viability, cells were washed twice with 0.85% NaCl, resuspended in 1×PBS, and cell counts were determined via the drop assay (Donegan, Matyac, Seidler, & Porteous, 1991). For human cell viability, pre-cultured human cancer HT-29 cells were dispensed in 98 μl in 96-well plates with approximately 5,000 cells/well. NPIMA was added (2 μl) to produce concentrations of 5, 10, 100, and 200 μM. For controls, Triton X-100 (positive control) and DMSO (negative solvent control), were used, and the medium was used for background. Plates were incubated in a humidified incubator (37° C., 5% CO2) for 24 hr. Cell viability was determined via a cell counting kit (CCK-8 Kit, ab228554; Abcam), and cytotoxicity was determined via the lactate dehydrogenase (LDH) assay (LDH Assay Kit, MK401; Takara).

[3] = system: E. coli K-12 BW25113; assay: Minimum inhibitory concentration (MIC); assay type: cell-based; details: Escherichia coli, LB, 24 hr
Procedure: (§3) The bacteria used in this study are E. coli K-12 BW25113 (Baba et al., 2006), S. aureus ATCC29213, and P. aeruginosa PA14 (Liberati et al., 2006). Lysogeny broth (LB; Bertani, 1951) was used at 37° C. for culturing the bacteria. 2-(Aminomethyl)-indole was obtained from Sigma-Aldrich (catalog number 563838), and 2-methyl-5-nitro-3-phenyl-1H-indole was obtained from ChemBridge (San Diego, CA).
(§4) To determine the MICs of NPIMA and 5-iodoindole for E. coli K-12, S. aureus, and P. aeruginosa PA14, cells were inoculated into LB at varying concentrations and grown for 24 hr. The MIC was determined as the lowest concentration that prevented an increase in growth as evidenced by a lack of change of turbidity.

[4] = system: S. aureus ATCC29213; assay: Minimum inhibitory concentration (MIC); assay type: cell-based; details: Staphylococcus aureus, LB, 24 hr
Procedure: as §3, §4

[5] = system: P. aeruginosa PA14; assay: Minimum inhibitory concentration (MIC); assay type: cell-based; details: Pseudomonas aeruginosa, LB, 24 hr
Procedure: as §3, §4

[6] = system: E. coli persister cells; details: 1 mM; Lee et al., 2016; cited from earlier work
[7] = system: S. aureus cells; assay: Survival of cells (drop assay); assay type: cell-based, Staphylococcus aureus; details: 200 μM
Procedure: as §1, §2

[8] = system: E. coli BW25113 exponential cells; assay: Survival of exponentially-growing cells (drop assay); assay type: cell-based, Escherichia coli; details: 100 μM, 6 hr
Procedure: as §1
FIG. 8. NPIMA structure function relationships. Exponential cells of Escherichia coli BW25113 were treated with (a) 2-(aminomethyl) indole, and (b) 2-methyl-5-nitro-3-phenyl-1H-indole for 6 hr. NPIMA, 5-nitro-3-phenyl-1Hindol-2-yl-methylamine hydrochloride.
as §2

[9] = system: E. coli persister cells; assay: ChemBridge screen for persister cell killing; assay type: cell-based, Escherichia coli; details: 100 μM, 24 hr
Procedure: FIG. 1. […] Escherichia coli persister cells were treated for 24 hr at 100 μM with: • 1: N-(3,4-dichlorophenyl)-N′-(3-fluorophenyl) thiourea; • 2: 2-({2-[(4-bromophenyl)amino]-4-quinazolinyl}amino)ethanol hydrochloride; • 3: 2-[(6-phenyl-2,3,4,9-tetrahydro-1H-carbazol-1-yl)amino] ethanol; • 4: 1-(3,6-dichloro-9H-carbazol-9-yl)-3-(2-methyl-1H-imidazol-1-yl)-2-propanol; • 5: N-[2-(4-fluorophenyl)ethyl]-N′-(4-nitrophenyl) thiourea; • 6: N-(4-chlorobenzyl)-N′-4-pyridinylthiourea; • 7: N′-(3,5-dichloro-2-hydroxybenzylidene)-2-oxo-4-phenyl-3-pyrrolidinecarbohydrazide; and • 8: [(5-nitro-3-phenyl-1H-indol-2-yl)methyl]amine hydrochloride (NPIMA, structure shown in inset).
To identify compounds that kill E. coli persister cells, 10,000 compounds of the DIVERset Library from ChemBridge (San Diego, CA) were tested by adding 4 μl of each (in DMSO, final concentration 100 μM) to 186 μl of LB in 96-well plates along with 10 μl of persister cells; the persister cells were added after the ChemBridge chemical since LB wakes persister cells (Kim, Yamasaki, et al., 2018). For the negative control, pure DMSO (final concentration 2 vol %) was used. The degree of inhibition was determined by the change in turbidity at 600 nm after 24 hr. The best 26 compounds were re-tested with the same conditions.
To screen directly for killing persister cells, a high-throughput approach using 96-well microtiter plates was devised that consisted of (a) washing persister cells formed from exponentially-growing cells using rifampicin pretreatment followed by ampicillin treatment, (b) adding 10 μl of the persister cells to 190 μl of LB containing one each of the 10,000 compounds of the DiverSet library dissolved in dimethyl sulfoxide (100 μM final concentration), and (c) monitoring for growth via change in turbidity for 24 hr. With this approach, we allowed for up to a 140-fold change in turbidity (0.005 could be increased to 0.69).

[10] = system: E. coli BW25113 persister cells; assay: Single-cell persister resuscitation; assay type: cell-based, Escherichia coli; details: 100 μM, M9 alanine (5×) agarose gel pads, 6 h
From the text: FIG. 12. RluD increases persister resuscitation by increasing ribosomes for resuscitation. (A) Single-cell persister resuscitation as determined using light microscopy (Zeiss Axio Scope.A1). The fold-change in resuscitation is relative to BW25113 with DMSO for BW25113 with BPOET, relative to BW25113 for the ΔrluD mutant, relative to BW25113/pCA24N for the strain producing RluD from pCA24N plasmid in BW25113, and relative to MG1655 for ΔrybB. M9 glucose (0.4%) agarose gel pads were used for all the strains except BW25113 with BPOET where M9 alanine (5×) agarose gel pads including 100 μM of BPOET or DMSO were used. The results are the combined observations from two independent experiments after 6 h for the BW25113 with BPOET, after 4 h for BW25113 and its deletion mutants, and after 6 h for cells harboring pCA24N and its derivatives as well as for MG1655 and MG1655 ΔrybB. Error bars indicate standard deviations. (B) Active 70S ribosomes in single persister cells for MG1655-ASV/pCA24N-rluD (“RluD”) VS. MG1655-ASV/pCA24N (“Empty”). Cells are shown on agarose gel pads at time 0 for resuscitation; i.e., after the formation of persister cells. Representative results from three independent cultures are shown.
Single-cell persister resuscitation. As described previously (19), 5 μL of cell populations consisting of 100% persister cells were added to 1.5% agarose gel pads containing either M9 medium with glucose (0.4 wt %) or alanine (5×) as a carbon source (24), and resuscitation was monitored at 37° C. via a light microscope (Zeiss Axio Scope.A1, bl_ph channel at 1000 ms exposure).
Table 5. Single persister cell resuscitation. Single-cell persister resuscitation as determined using light microscopy (Zeiss Axio Scope.A1) using agarose gel pads. The fold-change in resuscitation is relative to BW25113 with DMSO for BW25113 with BPOET, relative to BW25113 for the ΔrluD, relative to BW25113/pCA24N for the strain producing RluD from pCA24N in BW25113, and relative to MG1655 for ΔrybB. […]

[11] = system: E. coli persister cells; assay: Re-test of resuscitation hits in minimal alanine medium, 96-well plates; assay type: cell-based, Escherichia coli; details: 100 μM
Procedure: ChemBridge screen to identify resuscitation compounds. To identify compounds that resuscitate E. coli persister cells, the DIVERset Library from ChemBridge (San Diego, CA) containing 10,000 druglike compounds with high pharmacophore diversity was evaluated by adding 4 μL of each compound (final concentration 100 μM, dissolved in DMSO) to 186 μL of LB in 96 well plates and then adding 10 μL of persister cells. The negative control was 2 vol % DMSO. Resuscitation was calculated as the change in turbidity at 600 nm. The compounds that were identified initially were re-tested in M9 minimal medium with 5× alanine (24).

Compound: Ic1ccc2[nH]ccc2c1 [5-iodoindole, reference compound]
- killing of E. coli persister cells [1]: much less effective
- killing of P. aeruginosa [2]: ineffective
- MIC [3]: 2000 µM (≈ 486 µg/mL)
- MIC [4]: 2000 µM (≈ 486 µg/mL)
- MIC [5]: 2000 µM (≈ 486 µg/mL)
- persisters killed [6]: 99.993%
- killing of S. aureus [7]: ineffective
- killing of exponential E. coli cells [8]: much less effective

Compound: O=C1NCC(c2ccccc2)C1C(=O)N/N=C\c1cc(Cl)cc(Cl)c1O (centres unmarked) [compound 7, N′-(3,5-dichloro-2-hydroxybenzylidene)-2-oxo-4-phenyl-3-pyrrolidinecarbohydrazide]
- persister killing, second screen (FIG. 1) [9]: Most effective

Compound: CCn1c(SCC(=O)c2ccc(Br)cc2)nc2sc3c(c2c1=O)CCCC3 [BPOET, 2-{[2-(4-bromophenyl)-2-oxoethyl]thio}-3-ethyl-5,6,7,8-tetrahydro[1]benzothieno[2,3-d]pyrimidin-4(3H)-one]
- % waking [10]: 20 ± 13%
- Fold-change in resuscitation relative to BW25113 with DMSO [10]: 4 fold and 4 ± 3 fold
- Waking cells [10]: 38 ± 18
- increase in persister cell waking based on turbidity [11]: 44 fold

Compound: OCCNC1CCCc2c1[nH]c1ccc(-c3ccccc3)cc21 (centres unmarked) [compound 3, 2-[(6-phenyl-2,3,4,9-tetrahydro-1H-carbazol-1-yl)amino] ethanol]
- persister killing, second screen (FIG. 1) [9]: Most effective

Compound: NCc1cc2ccccc2[nH]1 [2-(aminomethyl)-indole]
- killing of exponential E. coli cells [8]: unable to kill E. coli

Compound: Cc1nccn1CC(O)Cn1c2ccc(Cl)cc2c2cc(Cl)ccc21 (centres unmarked) [compound 4, 1-(3,6-dichloro-9H-carbazol-9-yl)-3-(2-methyl-1H-imidazol-1-yl)-2-propanol]
- persister killing, second screen (FIG. 1) [9]: Most effective

Compound: Cc1[nH]c2ccc([N+](=O)[O-])cc2c1-c1ccccc1 [2-methyl-5-nitro-3-phenyl-1H-indole]
- killing of exponential E. coli cells [8]: unable to kill E. coli

Compound: S=C(NCc1ccc(Cl)cc1)Nc1ccncc1 [compound 6, N-(4-chlorobenzyl)-N′-4-pyridinylthiourea]
- persister killing, second screen (FIG. 1) [9]: Most effective

Compound: Cl.OCCNc1nc(Nc2ccc(Br)cc2)nc2ccccc12 [compound 2, 2-({2-[(4-bromophenyl)amino]-4-quinazolinyl}amino)ethanol hydrochloride]
- persister killing, second screen (FIG. 1) [9]: Most effective

Compound: Fc1cccc(NC(=S)Nc2ccc(Cl)c(Cl)c2)c1 [compound 1, N-(3,4-dichlorophenyl)-N′-(3-fluorophenyl) thiourea]
- persister killing, second screen (FIG. 1) [9]: Most effective
